The target of assay [1] is T1, recombinant Aurora A (Homo sapiens, UniProt O14965).
T1 construct: purchased Upstate, Lake Placid, N.Y
T1 sequence (O14965 1-403): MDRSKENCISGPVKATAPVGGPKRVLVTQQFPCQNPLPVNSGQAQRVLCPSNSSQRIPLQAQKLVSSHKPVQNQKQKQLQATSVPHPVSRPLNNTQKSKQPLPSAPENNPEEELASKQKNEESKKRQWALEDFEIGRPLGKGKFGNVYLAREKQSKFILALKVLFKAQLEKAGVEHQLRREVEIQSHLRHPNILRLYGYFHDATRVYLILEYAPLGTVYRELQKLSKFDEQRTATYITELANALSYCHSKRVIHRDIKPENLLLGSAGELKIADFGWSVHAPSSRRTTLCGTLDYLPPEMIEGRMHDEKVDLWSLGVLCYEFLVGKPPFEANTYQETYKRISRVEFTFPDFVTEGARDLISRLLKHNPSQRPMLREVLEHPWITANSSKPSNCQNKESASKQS
Briefly: Aurora A (Aurora 2) inhibition assay, Z'-Lyte kinase assay. Format: biochemical. The conditions noted are these: group with IC50 greater than 100 nM; ATP 10 μM, 1 h. Put shortly:
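Z'-Lyte FRET assay: Aurora A (200-500 ng/mL final), Ser/Thr 1 peptide (2 μM) and ATP (10 μM) in 50 mM HEPES pH 7.5, 10 mM MgCl2, 5 mM EGTA, 0.05% Brij-35, 2 mM DTT, 1 h at room temperature. Coumarin/fluorescein emission ratio converted to percent phosphorylation; dose-response curves plotted.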

Assay [2] has as its target T2, N-terminal His-tagged human Src (Homo sapiens, UniProt P12931).
T2 construct: His (N); purchased Upstate USA Inc, 706 Forest Street, Charlottesville, Va
Put plainly: Src kinase inhibition assay (33P-ATP filter assay). The format is biochemical.

Assay [3] relates to HCT116 cells. Put plainly: Whole cell cytotoxicity assay, Sulforhodamine B. Format: cell-based. The conditions noted are these: Homo sapiens, HCT-116, HCT116, 96 hours incubation, SRB; for IC50: read-out: IC50 values in this assay (HCT116 cell growth). Put shortly: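 HCT116 cells (500/well) in DMEM/10% FBS/2 mM glutamine were preincubated 24 h, then exposed to compound for 96 h at 37 °C, 5% CO2, in duplicate. Cells were fixed with TCA and stained with sulforhodamine B (A570). GI50, TGI and LC50 were derived relative to a time-zero plate and an untreated control.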

[4] abbreviates: group with IC50 greater than 100 nM.

Usually IC50 stands for the concentration at which inhibition is half-maximal. Broadly, the GI50 is the concentration that inhibits growth by half.

T2 sequence (P12931 whole entry): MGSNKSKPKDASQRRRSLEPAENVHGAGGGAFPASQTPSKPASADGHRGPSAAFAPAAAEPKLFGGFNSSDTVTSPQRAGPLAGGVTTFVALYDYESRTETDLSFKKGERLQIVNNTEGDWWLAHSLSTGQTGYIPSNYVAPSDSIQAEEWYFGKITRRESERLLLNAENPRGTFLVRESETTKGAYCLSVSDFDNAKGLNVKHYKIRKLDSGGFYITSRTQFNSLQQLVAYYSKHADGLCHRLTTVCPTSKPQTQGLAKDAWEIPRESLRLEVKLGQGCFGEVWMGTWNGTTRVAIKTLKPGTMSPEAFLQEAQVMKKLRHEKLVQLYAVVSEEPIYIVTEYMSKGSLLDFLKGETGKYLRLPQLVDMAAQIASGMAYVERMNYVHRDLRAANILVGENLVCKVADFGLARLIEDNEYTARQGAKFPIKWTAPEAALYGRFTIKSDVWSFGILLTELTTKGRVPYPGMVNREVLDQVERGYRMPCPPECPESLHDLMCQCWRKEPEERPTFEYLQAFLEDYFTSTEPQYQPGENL

For the compound `Cc1cc(Nc2cc(N(C)CCN(C)C)nc(-c3ccc4ccccc4c3)n2)n[nH]1` [Example 142, N^4-(2-(dimethylamino)ethyl)-N^4-methyl-N^6-(5-methyl-1H-pyrazol-3-yl)-2-(naphthalen-2-yl)pyrimidine-4,6-diamine], the half-maximal inhibitory concentration (IC50) is at most 1000 nM in assay [1] and at most 100 nM in assay [2] (40 minutes at room temperature). For the same compound, in assay [3] (read-out: GI50 HCT116 cell growth), the GI50 was at most 1000 nM.
In the case of `COCCN(C)c1cc(Nc2cc(C)[nH]n2)nc(-c2cccc3ccccc23)n1` [Example 148, N^4-(2-methoxyethyl)-N^4-methyl-N^6-(5-methyl-1H-pyrazol-3-yl)-2-(naphthalen-1-yl)pyrimidine-4,6-diamine], the IC50 in assay [1] is at most 1000 nM; in assay [2] (setting [4]), at most 1000 nM; in assay [3], 1000 to 10000 nM.
For `COCCN(C)c1cc(Nc2cc(C)[nH]n2)nc(-c2cccc(C)c2)n1` [Compound 65, N^4-(2-methoxyethyl)-N^4-methyl-N^6-(5-methyl-1H-pyrazol-3-yl)-2-m-tolylpyrimidine-4,6-diamine], the IC50 in assay [1] was at most 1000 nM; in assay [2] (setting [4]), at most 1000 nM; in assay [3], 1000 to 10000 nM.
For `Cc1cc(Nc2cc(NC3CCOCC3)nc(-c3ccc(C(C)(C)C)cc3)n2)n[nH]1` [Compound 70, 2-(4-tert-butylphenyl)-N^4-(5-methyl-1H-pyrazol-3-yl)-N^6-(tetrahydro-2H-pyran-4-yl)pyrimidine-4,6-diamine], the values for the IC50 in assay [1], in assay [2] (setting [4]) and in assay [3] were at most 1000 nM, at most 1000 nM and 1000 to 10000 nM, respectively.

(Values after patent US20090029992A1, “SUBSTITUTED PYRAZOLE COMPOUNDS” (priority 2007, published 2009).)
